Reference: US8906868B2, “Aminoglycoside derivatives” (Rempex Pharmaceuticals, Inc., priority 2010, dated 2014)
In brackets after ≈: the same amount, converted by molar mass. Read-outs that look alike come from different tables or passages of the source.

What was measured:
EC1002 aph(3′)-IV = assay: organism not typed; type: cell-based; details: read-out: Compound MIC on Bacterial Strains: EC1002 aph(3′)-IV
Outline: (§1)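 Broth microdilution MICs per CLSI M7-A7, 2-fold dilutions in cation-adjusted Mueller Hinton broth, inoculum 5×10^5 CFU/ml, 18 h at 35 °C. Strains express aminoglycoside-modifying enzymes; MIC read by turbidity at 600 nm and confirmed visually.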

ECM6009 aac(3)-II = assay: microbe, parasite or virus in culture; type: cell-based, Escherichia coli; details: Escherichia coli
Outline: as §1

ECM6006 aph(3′)-III = assay: microbe, parasite or virus in culture; type: cell-based, Escherichia coli; details: Escherichia coli
Outline: as §1

ECM6011 aph(3′)-I = assay: microbe, parasite or virus in culture; type: cell-based, Escherichia coli; details: Escherichia coli
Outline: as §1

ECM6010 ant(2″)-I = assay: microbe, parasite or virus in culture; type: cell-based, Escherichia coli; details: Escherichia coli
Outline: as §1

[1] = tested on: Staphylococcus aureus (ATCC 29213); assay: MIC, broth microdilution; details: Staphylococcus aureus
ACM1006 acc(6′)-Ib = assay: microbe, parasite or virus in culture; type: cell-based, Acinetobacter baumannii; details: Acinetobacter baumannii
Outline: (§2)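 CLSI broth microdilution used 2-fold serial dilutions in cation-adjusted Mueller Hinton broth with an inoculum of 5×10^5 CFU/ml. Plates were incubated 18 hours at 35° C. MIC was read by turbidity at 600 nm and confirmed visually.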

ECM6003 rmtB = assay: microbe, parasite or virus in culture; type: cell-based, Escherichia coli; details: Escherichia coli
Outline: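 Broth microdilution per CLSI M7-A7 in cation-adjusted Mueller Hinton broth with 2-fold serial dilutions and 5×10^5 CFU/ml inoculum. Incubated 18 hours at 35 °C; MIC read by turbidity at 600 nm and confirmed visually.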

[2] = tested on: Escherichia coli ECM6012 armA; assay: MIC, strains expressing aminoglycoside modifying enzymes; type: cell-based; details: ECM6012ARMA, read-out: MIC Escherichia coli ECM6012 armA
Description: (§3) To compare microbiological activity of the test compounds, minimum inhibitory concentrations (MIC.s) were determined. Antibiotic MICs were obtained using the broth microdilution method according to Clinical and Laboratory Standards Institute (CLSI) approved guidelines (Methods for dilution antimicrobial susceptibility tests for bacteria that grow aerobically; approved standard—7th ed. CLSI document M7-A7. Clinical and Laboratory Standards Institute, Wayne, Pa., incorporated herein by reference in its entirety). Antibiotics were dissolved as specified by CLSI (Performance standards for antimicrobial susceptibility testing; Seventeenth informational supplement. CLSI document M100-S17. Clinical and Laboratory Standards Institute, Wayne, Pa., incorporated herein by reference in its entirety), and were serially diluted 2-fold in cation adjusted Mueller Hinton Broth (CaMHB) at 2× concentration. Bacterial inoculums were prepared in CaMHB by suspension of a colony from an agar plate that was prepared the previous day to obtain a final concentration of 5×10^5CFU/ml. The plates were incubated for 18 hours at 35° C. […] MIC.s were determined by reading the turbidity of plate wells using a SpectraMax Plus384 plate reader (Molecular Devices, Sunnyvale, Calif., USA) at 600 nm and were confirmed by visual inspection.

[3] = tested on: Providencia stuartii PSM1000 aac(2′); assay: as above; type: cell-based; details: read-out: MIC Providencia stuartii PSM1000 aac(2′)
Description: as §3

[4] = tested on: Acinetobacter baumannii ACM1008 aac(3)-Ia; assay: as above; type: cell-based; details: read-out: MIC Acinetobacter baumannii ACM1008 aac(3)-Ia
Description: as §3

[5] = tested on: Pseudomonas aeruginosa pa1062 aac(3)-I; assay: as above; type: cell-based; details: read-out: MIC Pseudomonas aeruginosa pa1062 aac(3)-I
Description: as §3

[6] = tested on: Acinetobacter spp. AB1051 aph(3′)VI; assay: as above; type: cell-based; details: read-out: MIC Acinetobacter spp. AB1051 aph(3′)VI
Description: as §3

[7] = tested on: Escherichia coli ECM6008 aac(3)-I, ant(3″); assay: as above; type: cell-based; details: read-out: MIC Escherichia coli ECM6008 aac(3)-I, ant(3″)
Description: as §3

[8] = tested on: Pseudomonas aeruginosa pa1060 ant(2″); assay: as above; type: cell-based; details: read-out: MIC Pseudomonas aeruginosa pa1060 ant(2″)
Description: as §3

[9] = tested on: Pseudomonas aeruginosa pa1061 aac(6′) (no efflux); assay: as above; type: cell-based; details: read-out: MIC Pseudomonas aeruginosa pa1061 aac(6′) (no efflux)
Description: as §3

[10] = tested on: Escherichia coli EC1003 aac(3)I; assay: as above; type: cell-based; details: read-out: MIC Escherichia coli EC1003 aac(3)I
Description: as §3

[11] = tested on: Escherichia coli ECM6004 aac(2′); assay: as above; type: cell-based; details: read-out: MIC Escherichia coli ECM6004 aac(2′)
Description: as §3

[12] = tested on: Escherichia coli ECM6005 aac(3)-II, aph(3′)-II; assay: as above; type: cell-based; details: read-out: MIC Escherichia coli ECM6005 aac(3)-II, aph(3′)-II
Description: as §3

[13] = tested on: ECM6007 aac(6′) + aph(2″); assay: microbe, parasite or virus in culture; type: cell-based, Escherichia coli; details: Escherichia coli
Outline: as §2

EC1001 acc(6′)-Ib = assay: microbe, parasite or virus in culture; type: cell-based, Escherichia coli; details: Escherichia coli
Outline: as §2

[14] = tested on: Escherichia coli (ATCC 25922); assay: MIC, broth microdilution; details: Escherichia coli
[15] = read-out: Compound MIC on Bacterial Strains: ECM6009 aac(3)-II
[16] = read-out: MIC Escherichia coli ECM6009 aac(3)-II, aph(3′)
[17] = read-out: Compound MIC on Bacterial Strains: ECM6006 aph(3′)-III
[18] = read-out: MIC Escherichia coli ECM6006 aph(3′)-III
[19] = read-out: Compound MIC on Bacterial Strains: ECM6011 aph(3′)-I
[20] = read-out: MIC Escherichia coli ECM6011 aph(3′)-I
[21] = read-out: Compound MIC on Bacterial Strains: ECM6010 ant(2″)-I
[22] = read-out: MIC Escherichia coli ECM6010 ant(2″)
[23] = ATCC29213, read-out: Compound MIC on Bacterial Strains: S. aureus ATCC 29213, QC strain, Table 2
[24] = ATCC29213, read-out: Compound MIC on Bacterial Strains: Staphylococcus aureus SAM1000 ATCC 29213, Table 5
[25] = ATCC29213, read-out: MIC Staphylococcus aureus SAM1000 ATCC 29213, Table 7
[26] = Table 4, read-out: Compound MIC on Bacterial Strains: Acinetobacter baumannii ACM1006 acc(6′)-Ib
[27] = Table 8, read-out: MIC Acinetobacter baumannii ACM1006 aac(6′)-Ib
[28] = Table 3, read-out: Compound MIC on Bacterial Strains: ECM6003 rmtB
[29] = Table 8, read-out: MIC Escherichia coli ECM6003 rmtB
[30] = 18 h, Table 4, read-out: Compound MIC on Bacterial Strains: Escherichia coli ECM6007 aac(6′) + aph(2″)
[31] = Table 8, read-out: MIC Escherichia coli ECM6007 aac(6′) + aph(2″)
[32] = Table 4, read-out: Compound MIC on Bacterial Strains: Escherichia coli EC1001 acc(6′)-Ib
[33] = Table 8, read-out: MIC Escherichia coli EC1001 aac(6′)-Ib
[34] = ATCC25922, read-out: Compound MIC on Bacterial Strains: E. coli ATCC 25922
[35] = ATCC25922, read-out: Compound MIC on Bacterial Strains: ECM6000 ATCC 25922
[36] = ATCC25922, read-out: Compound MIC on Bacterial Strains: Escherichia coli ECM6000 ATCC 25922
[37] = ATCC25922, read-out: MIC Escherichia coli ECM6025 ATCC 25922

Row | Compound | MIC (EC1002 aph(3′)-IV) [µg/mL] | MIC (ECM6009 aac(3)-II; [15]) [µg/mL] | MIC (ECM6009 aac(3)-II; [16]) [µg/mL] | MIC (ECM6006 aph(3′)-III; [17]) [µg/mL] | MIC (ECM6006 aph(3′)-III; [18]) [µg/mL] | MIC (ECM6011 aph(3′)-I; [19]) [µg/mL] | MIC (ECM6011 aph(3′)-I; [20]) [µg/mL] | MIC (ECM6010 ant(2″)-I; [21]) [µg/mL] | MIC (ECM6010 ant(2″)-I; [22]) [µg/mL] | MIC [1, 23] [µg/mL] | MIC [1, 24] [µg/mL] | MIC [1, 25] [µg/mL] | MIC (ACM1006 acc(6′)-Ib; [26]) [µg/mL] | MIC (ACM1006 acc(6′)-Ib; [27]) [µg/mL] | MIC (ECM6003 rmtB; [28]) [µg/mL] | MIC (ECM6003 rmtB; [29]) [µg/mL] | MIC [2] [µg/mL] | MIC [3] [µg/mL] | MIC [4] [µg/mL] | MIC [5] [µg/mL] | also measured
1 | CN[C@@H]1C(O)[C@@H](OC2C(O)C(O[C@H]3O[C@H](CNC[C@@H](O)CO)CCC3N)[C@@H](N)C[C@H]2NC(=O)[C@@H](O)CN)OCC1(C)O (stereo partly shown) [Compound 44] | < 1 | < 1 | < 1 | < 1 | 1 to 8 (≈ 1.64 to 13.1 µM) | < 1 | < 1 | < 1 | < 1 | < 1 | < 1 | < 1 | 1 to 8 (≈ 1.64 to 13.1 µM) | 1 to 8 (≈ 1.64 to 13.1 µM) | > 8 | > 8 | > 8 | > 8 | 1 to 8 (≈ 1.64 to 13.1 µM) | > 8 | MIC [6]: 1 to 8 µg/mL (≈ 1.64 to 13.1 µM); MIC [7]: < 1 µg/mL; MIC [8]: < 1 µg/mL; MIC [9]: < 1 µg/mL; MIC [10]: < 1 µg/mL; MIC [11]: < 1 µg/mL; MIC [12]: < 1 µg/mL; MIC [13, 30]: < 1 µg/mL; MIC [13, 31]: < 1 µg/mL; MIC (EC1001 acc(6′)-Ib; [32]): < 1 µg/mL; MIC (EC1001 acc(6′)-Ib; [33]): < 1 µg/mL; MIC [14, 34]: < 1 µg/mL; MIC [14, 35]: < 1 µg/mL; MIC [14, 36]: < 1 µg/mL; MIC [14, 37]: < 1 µg/mL
2 | CN[C@@H]1[C@@H](O)[C@@H](O[C@@H]2[C@@H](O)[C@H](O[C@H]3O[C@H](CNC[C@H](O)CO)CC[C@H]3N)[C@@H](N)C[C@H]2NC(=O)[C@@H](O)CN)OC[C@]1(C)O [Compound 45, (S)-3-amino-N-((1R,2S,3S,4R,5S)-5-amino-4-((2R,3R,6S)-3-amino-6-(((S)-2,3-dihydroxypropylamino)methyl)tetrahydro-2H-pyran-2-yloxy)-2-((2R,3R,4R,5R)-3,5-dihydroxy-5-methyl-4-(methylamino)tetrahydro-2H-pyran-2-yloxy)-3-hydroxycyclohexyl)-2-hydroxypropanamide] | 1 to 8 (≈ 1.64 to 13.1 µM) | < 1 | < 1 | < 1 | 1 to 8 (≈ 1.64 to 13.1 µM) | < 1 | < 1 | < 1 | < 1 | 1 to 8 (≈ 1.64 to 13.1 µM) | 1 to 8 (≈ 1.64 to 13.1 µM) | 1 to 8 (≈ 1.64 to 13.1 µM) | 1 to 8 (≈ 1.64 to 13.1 µM) | 1 to 8 (≈ 1.64 to 13.1 µM) | > 8 | > 8 | > 8 | > 8 | 1 to 8 (≈ 1.64 to 13.1 µM) | > 8 | MIC [6]: 1 to 8 µg/mL (≈ 1.64 to 13.1 µM); MIC [7]: 1 to 8 µg/mL (≈ 1.64 to 13.1 µM); MIC [8]: 1 to 8 µg/mL (≈ 1.64 to 13.1 µM); MIC [9]: < 1 µg/mL; MIC [10]: < 1 µg/mL; MIC [11]: < 1 µg/mL; MIC [12]: < 1 µg/mL; MIC [13, 30]: < 1 µg/mL; MIC [13, 31]: < 1 µg/mL; MIC (EC1001 acc(6′)-Ib; [32]): 1 to 8 µg/mL (≈ 1.64 to 13.1 µM); MIC (EC1001 acc(6′)-Ib; [33]): 1 to 8 µg/mL (≈ 1.64 to 13.1 µM); MIC [14, 34]: < 1 µg/mL; MIC [14, 35]: < 1 µg/mL; MIC [14, 36]: < 1 µg/mL; MIC [14, 37]: < 1 µg/mL
